Entries after “also recorded” stand apart in the source; their conditions may differ.
What was measured:
FOXO4 = FOXO4 knockdown by lentiviral short hairpins: FOXO4 mRNA (QPCR) and punctate FOXO4 staining after 10Gy XRAY; assay type: cell-based, human; settings: HCA2 fibroblasts, 8 days after 10Gy XRAY
Experimental: FIG. 1A: 3×10^6 Normal Human IMR90 fibroblasts were plated in 6 cm dishes and the next day exposed to 10Gy ionizing radiation (XRAY) or left untreated. At the indicated time-points protein samples were prepared by collecting the cells in 1× Laemli Sample buffer. The indicated proteins were detected by western blot using antibodies against FOXO4 (#9472, Cell Signaling), FOXO3a (#07-702, Upstate/Millipore) and Tubulin (B-5-1-2, Sigma-Aldrich). FIG. 1B: 10^4 Normal human HCA2 fibroblasts were plated in 96-well plates in triplicate per condition and the next day exposed to 10Gy ionizing radiation (XRAY) or left untreated. At the indicated time-points mRNA and subsequent cDNA samples were collected using the Cells-to-Ct kit from Ambion according to the manufacturer's instructions. Real-time QPCR was subsequently performed using the Universal Probe Library system from Roche with the following primers/probe combinations: For FOXO4: Probe 18, FOXO4-fwd: 5′-[…]-3′, FOXO4-Rev: 5′-[…]-3′. For Tubulin: Probe 58, Tubulin-Fwd: 5′-[…]-3′ and Tubulin-Rev 5′-[…]-3′. Changes in mRNA expression were calculated using the ΔΔCT method. FIG. 1C: 2×10^5 IMR90 fibroblasts were plated on glass coverslips and the next day exposed to 10Gy ionizing radiation (XRAY) or left untreated. […]

A375 melanoma cells = experiment: A375-shGFP versus A375-shFOXO4 sensitivity to chemotherapeutic agents (MTS); assay type: cell-based, human
Experimental: FIG. 12A: 2×10^4 A375-shGFP or A375-shFOXO4-2 cells were plated in triplicate in 96-well plate chambers. The next day the cells were incubated with the indicated concentrations of PLX4032 or left untreated. After 6 days the a CellTiter 96® AQueous One Solution Cell Proliferation Assay (MTS) was performed according to the manufacturer's instructions (Promega) to determine the relative number of cells versus Mock treated A375-shGFP or A375-shFOXO4-2 melanoma cells (Left panel). Additionally, in a separate experiment the cells were refreshed at day 7 with the same dose of PLX4032 and left for another 4 days after which the same procedure was performed. FIG. 12B: Similar experiment as in A), except with the general RAF inhibitor RAF265. FIG. 12C: Similar experiment as in A), except with the MEK inhibitor AZD6244.

[1] = tested on: BRAFV600E-mutated A375 malignant melanoma cells; experiment: Cytochrome C release in shFOXO4-infected A375 cells treated with PLX4032; assay type: cell-based, human; settings: shFOXO4 versus control hairpin; PLX4032 0.5, 2 and 10 μM
Experimental: FIG. 9B: BRAF^V600E-mutated A375 malignant melanoma cells were infected as in FIG. 2a and selected for 3 days with 1 μg/ml Puromycin. Subsequently 2×10^4 cells were plated in triplicate on glass coverslips in 24-well plate chambers. The next day the cells were incubated with the indicated concentrations of the BRAF^V600E-inhibitor PLX4032 in the presence of 20 μM of the general caspase-inhibitor Q-VD-OPH. After 5 days the cells were processed as in FIG. 2b for Cytochrome C staining and the percentage of cells with Cytochrome C release was quantified.

[2] = tested on: BRAFV600E-driven melanoma cells such as A375; settings: Sala et al. 2008; cited from earlier work
metastatic melanoma = settings: patients with metastatic melanoma; Bollag 2010, Sosman 2012; cited from earlier work

| Compound | knockdown of FOXO4 mRNA and reduction in punctate FOXO4 staining (FOXO4) | sensitivity of A375-shFOXO4 compared with A375-shGFP cells to the drug (A375 melanoma cells) | also measured |
| --- | --- | --- | --- |
| 5′-CCAGCTTCAGTCAGCAGTTAT-3′ [shFOXO4-1] | induce knockdown of FOXO4 mRNA and reduction in punctate FOXO4 |  |  |
| 5′-CGTCCACGAAGCAGTTCAAAT-3′ [shFOXO4-2] | induce knockdown of FOXO4 mRNA and reduction in punctate FOXO4 |  |  |
| Cn1cnc2c(F)c(Nc3ccc(Br)cc3Cl)c(C(=O)NOCCO)cc21 [AZD6244] |  | more sensitive |  |
| N.N.[Cl][Pt][Cl] [Cisplatin] |  | more sensitive |  |
| CCCS(=O)(=O)Nc1ccc(F)c(C(=O)c2c[nH]c3ncc(-c4ccc(Cl)cc4)cc23)c1F [PLX4032] |  | more sensitive | sensitivity to PLX4032 on FOXO4 knockdown (Cytochrome C release) [1]: strongly sensitized; also recorded: Increased sensitivity; apoptosis [2]: trigger apoptosis; tumor-free survival rates (metastatic melanoma): Major improvements in tumor-free survival rates |
| Cn1c(Nc2ccc(C(F)(F)F)cc2)nc2cc(Oc3ccnc(-c4ncc(C(F)(F)F)[nH]4)c3)ccc21 [RAF265] |  | more sensitive |  |
